Measurements taken from patent US7402575B2, “Methods of treating inflammation” (priority 2003, dated 2008).
Entries after “also recorded” stand apart in the source; their conditions may differ.

Tests used:
[1] = test system: right ventricular trabecular preparation; test: Adrenergic response to field stimulation or isoproterenol in right ventricular trabecular preparation; assay type: cell-based, dog; conditions: TAC 10^−4M
Text: Since myocardial depression in sepsis may also be related to a diminished sympathetic response, the possible role of Lzm-S in contributing to this effect was additionally investigated in the right ventricular preparation as previously described (18). Neural adrenergic stimulation was produced in which the pulse width of the electrical stimulus-trains was increased from 2 ms to 20 ms, keeping other stimulus parameters unchanged. The increase in tension seen with sympathetic nerve stimulation was calculated as a percent increase from basal twitch amplitude. In the protocol used, the adrenergic response was measured before and after 10^−10M, 10^−9M, and 10^−8M Lzm-S were added to the organ bath. The results obtained with Lzm-S were compared with those obtained in time control experiments in which equal volumes of KH were added to the preparation at identical intervals. In a second set of experiments, it was observed whether TAC prevented the decrease in the adrenergic response produced by Lzm-S. Either TAC (10^−4M) or KH was added to an organ bath, and the results obtained with TAC treatment were compared with those obtained without the addition of the inhibitor. […]

[2] = test system: E. coli sepsis in dogs; test: Pretreatment Study: TAC given before E. coli sepsis, hemodynamics; assay type: in vivo, dog; conditions: for Arterial pH / HR / Hct / Pwp / SVR: mean±SE, n=6
Experimental: In all of the studies outlined, the animals were randomized into treatment and nontreatment placebo groups (see below). The E. coli model used in these studies was identical to that previously described (6). Sepsis was induced by the intravenous infusion of 10^10 colony forming units of live E. coli (designation 011:B4). The bacteria were suspended in normal saline solution and were given over 0.5 hour. A constant infusion of approximately 5×10^9 colony forming units/hour of E. coli was then maintained for the remainder of the experiment.
The animals (16-24 kg) were initially anesthetized with thiopental sodium (20 mg/kg, intravenously) and constantly infused with sufentanil citrate (1 ug/min) and midazolam (5 ug/kg/min) (33). Drug rates were adjusted as required to abolish the palpebral reflex. The animals were placed in the supine position; the trachea was intubated with an endotracheal tube; and the lungs were mechanically ventilated at a tidal volume of 20 ml/kg. The ventilator rate was initially set to maintain blood pH at approximately 7.35 and was increased as necessary to reverse the metabolic acidosis that developed over the course of the study. Approximately 100% oxygen was inspired, so that hypoxemia would not affect the results of the study.
Under sterile conditions, the right jugular vein was percutaneously cannulated with an introducer (Arrow International, Reading, Pa.). A thermister tipped catheter was advanced from the jugular vein into the pulmonary artery to measure mean pulmonary arterial pressure (Ppa), mean pulmonary capillary wedge pressure (Pwp), mean right atrial pressure (Pra), thermodilution cardiac output (CO, Columbus Instruments, OH), and to obtain mixed venous oxygen blood samples. Another introducer was placed into the left jugular vein for administration of intravenous saline solution and the treatment or placebo drug (see below). A polyethylene catheter was also percutaneously placed into the femoral artery to measure mean blood pressure (MAP), and to obtain samples of blood for blood gas analysis, blood hematocrit (Hct), lactate concentrations, and blood cultures in some cases. Lactate was measured by an automated lactate dehydrogenase based assay (34) and was performed only in ETS and LTS because of equipment difficulties in the Pretreatment Study.
All catheters were connected to transducers (Cobe Laboratories), were referenced relative to the left atrium and were connected to a chart recorder (Astro-Med, W Warwick, R.I.). Heart rate (HR) was measured from the recorder tracing. Stroke-volume (SV) was calculated as CO/HR. Systemic vascular resistance (SVR) was calculated from [(MAP-Pra)/CO]×80. At each measurement interval (see below), a full set of measurements included MAP, CO, Ppa, Pra, Pwp, Hct, HR, SV, and arterial and mixed venous blood samples.
In the analysis, stroke work (SW) was the primary index of cardiac performance and the primary hemodynamic endpoint chosen in the in vivo studies (35,18) (see Discussion). At constant preload, SW reflects both the decreases in afterload and the changes in contractile function that accompany sepsis. SW was determined at approximately the same Pwp at each measurement interval. The baseline Pwp usually averaged ≈8-10 mmHg, and normal saline solution was given as necessary to maintain Pwp constant over the experimental period. SW was calculated from SV (MAP-Pwp).
Pretreatment Study. In the Pretreatment Study, TAC was given before the bacteria were infused. Based on previous studies, it takes approximately 3 to 4 hours of constant bacteremia in order for myocardial depression to develop in this model (6,18). A three to five hour course of bacteremia was therefore considered necessary to determine if TAC could block the decline in SW observed at this interval. […]

[3] = Plasma concentrations of TAC in the previous in vivo experiments; design: species or system dog; conditions: in vivo experiments of Example 2; printed as low 10^−5M range
Experimental: The dose of TAC used in the Pretreatment Study was based on calculations previously obtained from the ventricular trabecular experiments in which it was estimated that a plasma concentration of at least 10^−5M would be required to inhibit lysozyme's depressant activity in vivo (49). Based on the molecular weight of TAC (628 MW), the average size of the dog (20 kg), and the estimated distribution space of approximately 50% of total body weight, the dose chosen was 100 mg (Sigma Corp, Canada, Oakville, Ontario) mixed in 200 ml 5% dextrose in water (D5W) that was given intravenously over 0.5 hr. After this initial dose, a dose of 50 mg mixed in 50 ml D5W was continuously infused over each hour for the remainder of the study. The placebo group received an identical amount of D5W over the course of the study.
In the present study, the inventors examined whether the administration of chitobiose after 3.5 hrs of E. coli sepsis at a relatively high dose could reverse the myocardial depression that develops in this model.

[4] = immediately after TAC infusion, before sepsis

CC(=O)N[C@H]1[C@H](O[C@H]2[C@H](O)[C@@H](NC(C)=O)C(O)O[C@@H]2CO)O[C@H](CO)[C@@H](O[C@@H]2O[C@H](CO)[C@@H](O)[C@H](O)[C@H]2NC(C)=O)[C@@H]1O (stereo partly drawn) [TAC, N,N′,N″ triacetylglucosamine]
Effect of pretreatment on the reduction in adrenergic response caused by Lzm-S [1]: prevented the reduction in adrenergic response
CO after pretreatment, before sepsis [2]: no significant effect on CO
CO at the 3 h period vs baseline [2]: CO increased further at the 3 h period
MAP after treatment, before sepsis [2]: no effect on baseline MAP
MAP at the 5 hour period vs nontreated group [2]: significantly prevented the decrease in MAP; also recorded: significant increases
SV, change between baseline and 5 h vs nontreated group [2]: significantly different between the treated and nontreated groups; also recorded: significant increases
SW, change between baseline and 5 h vs nontreated group [2]: significantly different between the treated and nontreated groups; also recorded: significant increases
Arterial pH ([2]; 3 h postsepsis): 7.25 ± .001
HR ([2]; 3 h postsepsis): 105 ± 5 beats/min
Hct ([2]; 3 h postsepsis): 28 ± 2%
Pwp ([2]; 3 h postsepsis): 9 ± .9 mmHg
SVR ([2]; 3 h postsepsis): 1272 ± 221 dynes s cm^−5
Arterial pH ([2]; 5 h postsepsis): 7.22 ± 0.1
HR ([2]; 5 h postsepsis): 90 ± 5 beats/min
Hct ([2]; 5 h postsepsis): 26 ± 3%
Pwp ([2]; 5 h postsepsis): 9.6 ± .9 mmHg
SVR ([2]; 5 h postsepsis): 1504 ± 249 dynes s cm^−5
Arterial pH ([2]; baseline before TAC): 7.35 ± .01
HR ([2]; baseline before TAC): 74 ± 11 beats/min
Hct ([2]; baseline before TAC): 33 ± 1%
Pwp ([2]; baseline before TAC): 9.3 ± .8 mmHg
SVR ([2]; baseline before TAC): 2472 ± 320 dynes s cm^−5
Arterial pH [2, 4]: 7.28 ± .01
HR [2, 4]: 78 ± 5 beats/min
Pwp [2, 4]: 10.4 ± 1 mmHg
SVR [2, 4]: 1872 ± 320 dynes s cm^−5
Plasma concentrations of TAC [3]: ~10^−5 M
